Activity data for five compounds are collected here from ChEMBL document CHEMBL1155672, “Secobotrytriendiol and related sesquiterpenoids: new phytotoxic metabolites from Botrytis cinerea” (J Nat Prod, 2000).

Calls of active or inactive are those of the source. The calls are words filed in the database; no cut-off is given here.

Type in all cases: functional, organism-based
The test system of test [1] is Nicotiana tabacum. Put plainly: Phytotoxicity against Nicotiana tabacum at 500 ppm after 7 days.
The subject of test [2] is Nicotiana tabacum. Briefly: Phytotoxicity against Nicotiana tabacum at 1000 ppm after 7 days.
Test [3] concerns Nicotiana tabacum. Put plainly: Phytotoxicity against Nicotiana tabacum at 250 ppm after 7 days.

Regarding `C=CC1=C(/C(=C\C)CO)[C@@](C)(CO)CC1(C)C`, the result in the test on Nicotiana tabacum [1] was Active.
Same read-out and setting: in the case of `COC(=O)[C@H]1[C@H](C)C[C@H](OC(C)=O)[C@H]2C(C)(C)C[C@](C)(CO)[C@@]12O` it was “Active”.
On to `CO[C@H]1O[C@H](OC)[C@@]2(C)CC(C)(C)[C@@H]3[C@@H](OC(C)=O)C[C@@H](C)[C@H]1[C@@]32O`, for which the result in the test with Nicotiana tabacum [2] was Active.
Regarding `Cc1ccc2c(c1CO)[C@@](C)(CO)CC2(C)C`, the result in the test with Nicotiana tabacum [1] was Active.
Turning to `CC1(C)C[C@](C)(CO)c2c1ccc(CO)c2CO`, the result in the test with Nicotiana tabacum [3] was Active.
